Tests used:
Type in all cases: cell-based
Jurkat cells [1] = experiment: Annexin V apoptosis assay (AF594-annexin V, DACM, SYTOX green) with the claimed apparatus; conditions: 1 μM nocodazole, 16 hours; for annexin V positive cells (apoptotic cells): viable cells, nonviable cells gated out by SYTOX green
Description: Here the claimed apparatus is used in assaying fluorescently labelled annexin V to stain apoptotic and necrotic cells and SYTOX green to distinguish between the early and late apoptotic/necrotic cells. In addition DACM is used to stain all viable cells. Jurkat cells were cultivated at 37° C. in a humidified air atmosphere with 5% CO2 in RPMI (Invitrogen, Cat. No. 61870) supplemented with 10% heat-inactivated fetal bovine serum (Invitrogen, Cat. No. 10108-165). Cells were either treated with 1 μM nocodazole (Sigma, Cat. No. M1404) or left untreated. After 16 hours incubation (37° C., 5% CO2) cells were harvested in cold phosphate-buffered saline (PBS) and stained with AlexaFluor 594-labelled annexin V (Molecular probes, A-13203) according to the manufacturer's protocol. After annexin V staining all viable cells were co-stained using DACM (N-(7-dimethylamino-4-methyl-3-coumarinyl)-maleimide, WAKO Pure Chemical Industries, CAS no. 55145-14-7) and nonviable cells were stained with SYTOX green (Invitrogen, S7020). The stained cells were loaded into a NC-Slide. The NC-Slide was placed in the claimed apparatus and the cells were counted and investigated using the claimed apparatus and in-house developed software. The cells were also investigated using an Olympus IX50 fluorescent microscope. SYTOX green fluorescence was detected using a U-MWIBA3 (blue bandpass) filter cube (Olympus), the annexin V AF594 conjugate was detected using a U-MWG2 (green longpass) filter cube (Olympus) and DACM was detected using the U-MNUA2 (UV band pass) filter cube (Olympus).

CHO cells = experiment: Caspase based assay (SR-VAD-FMK poly-caspase FLICA, DACM, SYTOX green); conditions: 1 μM nocodazole, 16 hours
Description: Another caspase based apoptosis assay is the FLICAssay (Fluorochrome Inhibitor of Caspases Assay). This assay detects active caspases inside the cell using a caspase specific inhibitor sequence linked to a fluorescent probe. The non-cytotoxic caspase specific inhibitor is cell permeant and passes through the intact plasma membrane and covalently binds to the reactive cysteine residue on the large subunit of the active caspase heterodimer. […] Measuring the fluorescence thus gives a direct measure of the amount of active caspase in the whole living cell.
To quantify caspase activity by the FLICAssay, the cells to be investigated are incubated with the chosen caspase specific inhibitor sequence linked to a fluorescent probe. Cells are washed to remove unbound inhibitor and the fluorescence of the cells is determined using the claimed apparatus thereby making measurement of caspase activity on the single cell level possible. […]
CHO cells were cultivated in RPMI (Invitrogen, Cat. No. 61870) supplemented with 10% heat-inactivated fetal bovine serum (Invitrogen, Cat. No. 10108-165) at 37° C. in a humidified air atmosphere with 5% CO2. […] The NC-Slide was placed in the claimed apparatus and the cells were counted and investigated using the claimed apparatus and in-house developed software. […]

Jurkat (JM) cells = experiment: Annexin V apoptosis assay (AlexaFluor 488-Annexin V, PI) with the claimed apparatus; conditions: 3 μM Camptothecin, three hours incubation
Description: Here the claimed apparatus is used in assay fluorescently labeled Annexin V to stain apoptotic and necrotic cells and PI to distinguish between the early and late apoptotic/necrotic cells. Jurkat (JM) cells were cultivated at 37° C. in a humidified air atmosphere with 5% CO2 in RPMI (Invitrogen, Cat. No. 61870) supplemented with 10% heat-inactivated fetal bovine serum (Invitrogen, Cat. No. 10108-165). 3 μM Camptothecin (Sigma, Cat. No. C-9911) was added to the cells in order to induce apoptosis. After three hours incubation (37° C., 5% CO2) cells were harvested in cold phosphate-buffered saline (PBS) and stained with AlexaFluor 488-labelled Annexin V from the Vybrant® Apoptosis Assay Kit #2 (Molecular probes, V13241) according to the manufacturer's protocol. The stained cells were loaded into a cassette containing propidium iodide. The cassette was placed in the claimed apparatus and the cells were counted and investigated using the claimed apparatus and in-house developed software. The cells were also investigated using an Olympus IX50 fluorescent microscope. Images were captured using a Lumenera CCD camera and in-house developed software. AF488 fluorescence was detected using a U-MWIBA3 (blue bandpass) filter cube (Olympus) and PI fluorescence was detected using a U-MWG2 (green longpass) filter cube (Olympus).

Jurkat cells [2] = experiment: Early apoptosis by mitochondrial membrane potential (JC-1 and DAPI staining); conditions: 10 μM campthotecin, 5 hours at 37° C.
Description: Loss of the mitochondrial membrane potential is known to precede apoptosis and chemical-hypoxia-induced necrosis. The lipophilic cationic dye JC-1 (5,5,6,6-tetrachloro-1,1,3,3-tetraethylbenzimidazol-carbocyanine iodide) display potential-dependent accumulation in the mitochondria and provides a simple, fluorescent-based method for distinguishing between healthy and apoptotic cells. In healthy cells, the negative charge established by the intact mitochondrial membrane potential facilitates the accumulation of JC-1 in the mitochondrial matrix. At high concentrations JC-1 forms aggregates and become red fluorescent. In apoptotic cells the mitochondrial potential collapses and JC-1 localizes to the cytosol in its monomeric green fluorescent form. A cell impermeable DNA stain (like DAPI) can be included to stain necrotic and late apoptotic cells. Jurkat cells were grown in RPMI+10% FCS to a density of 5.0×10^5 cells/ml and treated with 10 μM campthotecin (apoptosis inducing drug) for 5 hours. Cells were stained with 2.5 μg/ml JC-1 for 10 minutes at 37° C., washed with PBS, resuspended in PBS+1 μg/ml DAPI and analysed using the claimed apparatus.

Structure (SMILES) | viability (Jurkat cells [1]) | annexin V positive cells (apoptotic cells) (Jurkat cells [1]) | annexin V positive cells (apoptotic cells) (Jurkat cells [1]; listed as Nocodazole) | cells exhibiting strong red fluorescence (caspase activity, apoptotic cells) versus untreated cells (CHO cells) | concentration of apoptotic cells (Annexin V conjugate binding cells) (Jurkat (JM) cells) | concentration of non-viable cells (PI) (Jurkat (JM) cells) | depolarized/apoptotic cells (JC-1) (Jurkat cells [2]) | viability (DAPI positive cells counted) (Jurkat cells [2])
COC(=O)Nc1nc2ccc(C(=O)c3cccs3)cc2[nH]1 [nocodazole] | almost not affected | more than 40% | ~40% | Substantially more |  |  |  | 
CC[C@@]1(O)C(=O)OCc2c1cc1n(c2=O)Cc2cc3ccccc3nc2-1 [Camptothecin] |  |  |  |  | 2.6×10^5 | 4.5×10^4 | 60% | approximately 96%

Reference: patent US10254223B2, “Apparatus and methods for analysing fluorescent particles” (ChemoMetec A/S, priority 2008, dated 2019)
